{"source": "patent US20230405145A1", "about": "“IRON OXIDE NANOPARTICLE FOR SUPPRESSING DRUG-RESISTANT GENE FOR THE TREATMENT OF GLIOBLASTOMA” (University of Washington, priority 2020, published 2023)", "key": {"[1]": {"conditions": "systemic administration; cited from earlier work"}, "[2]": {"tested_on": "GBM6 orthotopic xenograft", "assay": "Kaplan-Meier survival, orthotopic GBM6 xenograft", "type": "in vivo, NOD-SCID mice", "description": "The mice were closely monitored during the entire treatment period until the time of euthanasia. […] Mice treated with NP-siMGMT-CTX extended their lifespan for 18.3 days while mice treated with TMZ alone extended their lifespan for 2.3 days.\nOrthotopic xenograft tumor model and therapy response experiments. All xenograft therapy evaluations were conducted using a GBM6 orthotopic tumor model. The human GBM6 tumor was provided by the Mayo Clinic. The procedure for establishing intracranial tumors was described previously (B. L. Carlson, J. L. Pokorny, M. A. Schroeder, J. N. Sarkaria, Current Protocols in Pharmacology 2011, 52, 1; B. L. Carlson, P. T. Grogan, A. C. Mladek, M. A. Schroeder, G. J. Kitange, P. A. Decker, C. Giannini, W. Wu, K. A. Ballman, C. D. James, J. N. Sarkaria, International Journal of Radiation Oncology, Biology, Physics 2009, 75, 212). In brief, flank GBM6 tumor xenografts were harvested, mechanically disaggregated and stereotaxically injected into the frontal lobe of 6-week-old female NOD-SCID mice (Jackson Laboratories). […] At about 4 weeks post-tumor implantation, mice with similar tumor size as evaluated by MRI were randomized to one treatment group treated with NP-siMGMT-CTX+TMZ, and three control groups treated with either NP-siGFP-CTX+TMZ, TMZ only, or untreated. […]"}, "A1235 cells": {"tested_on": "A1235 cells", "assay": "Clonogenic assay, MGMT-deficient A1235 cells", "conditions": "A1235 (GBM cell line)"}, "SF763 cells": {"tested_on": "SF763 cells", "assay": "Clonogenic assay, MGMT-proficient SF763 cells", "conditions": "SF763 (GBM cell line)"}, "GBM6 cells": {"tested_on": "GBM6 cells", "assay": "Alamar blue viability assay, GBM6 stem-like cells", "conditions": "GBM6 (cancer stem cell)", "protocol": "Cell survival assays. Alamar blue assay was used to evaluate cell viability following the manufacture's protocol (Life Technologies). […] AB assay was conducted at 2 days after transfection. Cells were washed with PBS (pH 7.4) three times before adding 10% AB in complete growth medium to the wells. After incubation for 1 hr, the AB solution was transferred to a 96-well plate, and fluorescent emissions at an excitation wavelength of 550 nm and an emission wavelength of 590 nm were read on a SpectraMax M5 microplate reader (Molecular Devices)."}, "primary brain tumors": {"tested_on": "primary brain tumors", "conditions": "cited from earlier work"}}}
{"compound": "Nc1nc(OCc2ccccc2)c2nc[nH]c2n1", "note": "[BG, O^6-benzylguanine]", "values": [{"measurement": "toxicity in combination with TMZ", "setting": "[1]", "result": "severe myelotoxicity"}]}
{"compound": "Cn1nnc2c(C(N)=O)ncn2c1=O", "note": "[TMZ, temozolomide]", "values": [{"measurement": "median survival", "setting": "[2]; NPs given with TMZ per FIG. 5A schedule, TMZ 100 mg/kg oral", "result": "40.8 ± 2.7", "unit": "days"}, {"measurement": "extension of lifespan", "setting": "[2]; versus untreated mice", "result": 2.3, "unit": "days"}, {"measurement": "TMZ required for effective treatment", "setting": "A1235 cells", "result": 10, "unit": "µM"}, {"measurement": "TMZ required for effective treatment", "setting": "SF763 cells", "result": 400, "unit": "µM"}, {"measurement": "TMZ required for effective treatment", "setting": "GBM6 cells", "result": 4, "unit": "mM"}]}
{"compound": "chlorotoxin [CTX]", "values": [{"measurement": "primary brain tumors targeted, of those examined", "setting": "primary brain tumors", "result": "74 out of 79"}]}
